Patent US20240197888A1, “SOS1 PROTEIN DEGRADERS, PHARMACEUTICAL COMPOSITIONS THEREOF, AND THEIR THERAPEUTIC APPLICATIONS” (BioTheryX, Inc., priority 2021, published 2024)

What was measured:
Format in all cases: cell-based
H358 (G12C) cells = assay: Cell viability assay (CELLTITER-GLO), H358 cells; conditions: Homo sapiens, NCI-H358, 72 h, Inhibition of cancerous cells, 3 days incubation, luminescence
Experimental: (§1) AsPC-1, H358, and SW48 cells were cultured in RPMI 1640 media supplemented with 10% fetal bovine serum, streptomycin, and penicillin. Lovo and SW480 cells were cultured in DMEM media supplemented with 10% fetal bovine serum, streptomycin, and penicillin. The cell lines were plated in their respective medium supplemented with 2.5% fetal bovine serum, streptomycin, and penicillin. All cell lines were plated in white walled 96-well plates at 2,000 cells/well or 384-well plates at 500 cells/well, except Lovo, which were plated at 4,000 or 1,000 cells/well, respectively. The cells were incubated in DMSO (control) or a compound for 3 days at 37° C. under 5% CO2. A CELLTITER-GLO® reagent ([…] was then added to each well. After a 10 min incubation with shaking, luminescence was measured using an ENVISION® multimode plate reader. IC50 values are summarized in Table 1.

Lovo (G13D) cells = assay: Cell viability assay (CELLTITER-GLO), Lovo cells; conditions: Homo sapiens, 72 h, Inhibition of cancerous cells, 3 days incubation, luminescence
Experimental: as §1

SW48 (wt) cells = assay: Cell viability assay (CELLTITER-GLO), SW48 cells; conditions: Homo sapiens, 72 h, Inhibition of cancerous cells, 3 days incubation, luminescence
Experimental: as §1

AsPC-1 (G12D) cells = assay: Cell viability assay (CELLTITER-GLO), AsPC-1 cells; conditions: Homo sapiens, ASPC1, 72 h, Inhibition of cancerous cells, 3 days incubation, luminescence
Experimental: as §1

SW480 (G12V) cells = assay: Cell viability assay (CELLTITER-GLO), SW480 cells; conditions: Homo sapiens, 72 h, Inhibition of cancerous cells, 3 days incubation, luminescence
Experimental: as §1

| IC50 (H358 (G12C) cells) [µM] | IC50 (Lovo (G13D) cells) [µM] | IC50 (SW48 (wt) cells) [µM] | IC50 (AsPC-1 (G12D) cells) [µM] | IC50 (SW480 (G12V) cells) [µM] | Structure (SMILES) |
| --- | --- | --- | --- | --- | --- |
| 1.2 | 0.54 | 0.53 | 0.59 | 0.44 | CNCc1ccccc1-c1csc([C@@H](C)Nc2nc(C)nc3cc(OCCCCCCCN4CCC(C(F)(F)F)CC4)c(OC)cc23)c1 [Compound A67, (R)-6-Methoxy-2-methyl-N-(1-(4-(2-((methylamino)methyl)phenyl)thiophen-2-yl)ethyl)-7-((7-(4-(trifluoromethyl)piperidin-1-yl)heptyl)oxy)quinazolin-4-amine] |
| 3.2 | 2.5 | 3.6 | 5.1 | 3.4 | COc1cc2nc(C)nc(N[C@H](C)c3cccc(Br)c3)c2cc1OC [reference compound] |
| > 10 | > 10 | > 10 | > 10 | > 10 | COc1cc2nc(C)nc(N[C@H](C)c3cccc(C(F)(F)CO)c3)c2cc1OC [reference compound] |
| 1.1 | 0.34 | 0.53 | 0.68 | 0.38 | CNCc1ccccc1-c1csc([C@H](C)Nc2nc(C)nc3cc(OCCCCCCCN4CCN(C(C)=O)CC4)c(OC)cc23)c1 [Compound A65, (S)-1-(4-(7-((6-Methoxy-2-methyl-4-((1-(4-(2-((methylamino)methyl)phenyl)-thiophen-2-yl)ethyl)amino)quinazolin-7-yl)oxy)heptyl)piperazin-1-yl)ethan-1-one] |
| 2.8 | 1.4 | 1.4 | 2.7 | 1.5 | COc1cc2c(N[C@H](C)c3cccc(Br)c3)nc(C)nc2cc1OCCCCCCCN1CCC2(CCNCC2)CC1 [Compound A71, (R)-7-((7-(3,9-Diazaspiro[5.5]undecan-3-yl)heptyl)oxy)-N-(1-(3-bromophenyl)-ethyl)-6-methoxy-2-methylquinazolin-4-amine] |
| > 10 | > 10 | > 10 | > 10 | > 10 | COc1cc2nc(C)nc(N[C@H](C)c3cc(N)cc(C(F)(F)F)c3)c2cc1OC [reference compound] |
| 1.2 | 1.1 | 0.82 | 2 | 0.55 | CNCc1ccccc1-c1csc(C(C)Nc2nc(C)nc3cc(OCCCCCCCN4CCC(C(F)(F)F)CC4)c(OC)cc23)c1 (stereo in doubt) [Compound A66, (R)-6-Methoxy-2-methyl-N-(1-(4-(2-((methylamino)methyl)phenyl)thiophen-2-yl)ethyl)-7-((7-(4-(trifluoromethyl)piperidin-1-yl)heptyl)oxy)quinazolin-4-amine] |
| 1.4 | 0.5 | 0.98 | 1.3 | 0.93 | COc1cc2c(N[C@H](C)c3cccc(Br)c3)nc(C)nc2cc1OCCCCCCCNCCC(F)(F)F [Compound A70, (R)—N-(1-(3-Bromophenyl)ethyl)-6-methoxy-2-methyl-7-((7-((3,3,3-trifluoro-propyl)amino)heptyl)oxy)quinazolin-4-amine] |
| 0.53 | 0.24 | 0.17 | 0.51 | 0.25 | CNCc1ccccc1-c1csc([C@@H](C)Nc2nc(C)nc3cc(OCCCCCCCC4CCC(c5ccccc5)CC4)c(OC)cc23)c1 (stereo partly drawn) [Compound A60, (R)-6-Methoxy-2-methyl-N-(1-(4-(2-((methylamino)methyl)phenyl)thiophen-2-yl)ethyl)-7-((7-(4-phenylcyclohexyl)heptyl)oxy)quinazolin-4-amine] |
| 1.1 | 0.39 | 0.64 | 1 | 0.48 | COc1cc2c(N[C@H](C)c3cccc(Br)c3)nc(C)nc2cc1OCCCCCCCN1CCC2(CC1)CCN(C(=O)OC(C)(C)C)CC2 [Compound A72, Tert-butyl (R)-9-(7-((4-((1-(3-bromophenyl)ethyl)amino)-6-methoxy-2-methyl-quinazolin-7-yl)oxy)heptyl)-3,9-diazaspiro[5.5]undecane-3-carboxylate] |
| – | – | – | 3.1 | – | CNCc1ccccc1-c1csc([C@H](C)Nc2nc(C)nc3cc(OCCCCCCC(C)(C)C)c(OC)cc23)c1 [Compound A59, (S)-7-((7,7-Dimethyloctyl)oxy)-6-methoxy-2-methyl-N-(1-(4-(2-((methylamino)-methyl)phenyl)thiophen-2-yl)ethyl)quinazolin-4-amine] |
| 6.7 | 2.9 | 5.1 | – | 3.9 | COc1cc2c(N[C@H](C)c3cccc(Br)c3)nc(C)nc2cc1OCCCCCCCC(=O)N[C@H]1CCC(=O)NC1=O [Compound A77, 8-((4-(((R)-1-(3-Bromophenyl)ethyl)amino)-6-methoxy-2-methylquinazolin-7-yl)oxy)-N—((S)-2,6-dioxopiperidin-3-yl)octanamide] |
| 1.3 | 0.78 | 1.7 | – | 0.56 | COc1cc2c(N[C@H](C)c3cccc(Br)c3)nc(C)nc2cc1OCCCCCCC(=O)N1CCCCC1 [Compound A36, (R)-7-((4-((1-(3-Bromophenyl)ethyl)amino)-6-methoxy-2-methylquinazolin-7-yl)oxy)-1-(piperidin-1-yl)heptan-1-one] |
| 0.94 | 0.58 | 0.57 | – | 0.57 | CNCc1ccccc1-c1csc([C@H](C)Nc2nc(C)nc3cc(OCCOCCOC(=O)CC45CC6CC(CC(C6)C4)C5)c(OC)cc23)c1 [Compound A48, 2-(2-((6-Methoxy-2-methyl-4-(((S)-1-(4-(2-((methylamino)methyl)phenyl)-thiophen-2-yl)ethyl)amino)quinazolin-7-yl)oxy)ethoxy)ethyl 2-((3r,5r,7r)-adamantan-1-yl)acetate] |
| 1.4 | 0.45 | 0.68 | 1.1 | 0.46 | CNCc1ccccc1-c1csc([C@@H](C)Nc2nc(C)nc3cc(OCCCCCCCN4CCN(C(C)=O)CC4)c(OC)cc23)c1 [Compound A64, (R)-1-(4-(7-((6-Methoxy-2-methyl-4-((1-(4-(2-((methylamino)methyl)phenyl)-thiophen-2-yl)ethyl)amino)quinazolin-7-yl)oxy)heptyl)piperazin-1-yl)ethan-1-one] |

| Structure (SMILES) | IC50 (H358 (G12C) cells) [µM] | IC50 (Lovo (G13D) cells) [µM] | IC50 (SW48 (wt) cells) [µM] | IC50 (AsPC-1 (G12D) cells) [µM] | IC50 (SW480 (G12V) cells) [µM] |
| --- | --- | --- | --- | --- | --- |
| CNCc1ccccc1-c1csc([C@@H](C)Nc2nc(C)nc3cc(OCCC(C)(C)C)c(OC)cc23)c1 [Compound A62, (R)-7-(3,3-Dimethylbutoxy)-6-methoxy-2-methyl-N-(1-(4-(2-((methylamino)-methyl)phenyl)thiophen-2-yl)ethyl)quinazolin-4-amine] | 1.3 | 0.5 | 0.53 | 1.1 | 0.45 |
| CNCc1ccccc1-c1csc([C@H](C)Nc2nc(C)nc3cc(OCCC(C)(C)C)c(OC)cc23)c1 [Compound A63, (S)-7-(3,3-Dimethylbutoxy)-6-methoxy-2-methyl-N-(1-(4-(2-((methylamino)-methyl)phenyl)thiophen-2-yl)ethyl)quinazolin-4-amine] | 1.1 | 0.42 | 0.53 | 1 | 0.46 |
| COc1cc2c(N[C@H](C)c3cccc(Br)c3)nc(C)nc2cc1OCCCCc1ccncc1 [Compound A73, (R)—N-(1-(3-Bromophenyl)ethyl)-6-methoxy-2-methyl-7-(4-(pyridin-4-yl)-butoxy)quinazolin-4-amine] | 2.6 | 1.4 | 4.1 | – | 1 |
